In paper PMC12443583 (Nature Medicine, 2025):

Legend:
p-MEK (Ser222) = assay: p-MEK in tumor biopsies, antibody bead-based Luminex; format: in vivo, human; conditions: post-treatment versus pretreatment biopsy
p-ERK (Thr185–Try187) = assay: p-ERK in tumor biopsies, antibody bead-based Luminex; format: in vivo, human; conditions: post-treatment versus pretreatment biopsy
LGSOC = conditions: 23 (binimetinib), cited from earlier work; for progression-free interval / response rate: phase 2 and phase 3 trials, ref 24 (selumetinib), 25 (trametinib); for discontinuation rates because of AEs: ref 25 (trametinib)

Row | SMILES | phosphorylation of p-MEK in tumor biopsies (p-MEK (Ser222)) | phosphorylation of p-ERK in tumor biopsies (p-ERK (Thr185–Try187)) | progression-free interval (LGSOC) [months] | response rate (LGSOC) [%] | discontinuation rates because of AEs (LGSOC) [%]
1 | CNS(=O)(=O)Nc1nccc(Cc2c(C)c3ccc(Oc4ncccn4)cc3oc2=O)c1F [avutometinib] | reduction | reduction |  |  | 
2 | Cn1cnc2c(F)c(Nc3ccc(Br)cc3F)c(C(=O)NOCCO)cc21 [binimetinib] |  |  | 9.1 | 16 | 31
3 | Cn1cnc2c(F)c(Nc3ccc(Br)cc3Cl)c(C(=O)NOCCO)cc21 [selumetinib] |  |  | 11 | 15 | 
4 | CC(=O)Nc1cccc(-n2c(=O)n(C3CC3)c(=O)c3c(Nc4ccc(I)cc4F)n(C)c(=O)c(C)c32)c1 [trametinib] |  |  | 13 | 26 | 36
